This note sets out measurements from ChEMBL document CHEMBL3046009, “Synthesis of piperineamino acid ester conjugates and study of their cytotoxic activities against human cancer cell lines” (Med Chem Res, 2012).

For orientation: IC50 means the midpoint of a concentration-inhibition curve. Low values mean greater potency, high ones weaker potency.

What all share (assay type): functional, cell-based
The subject of one assay is PC-3. Kind of assay: Cytotoxicity against Homo sapiens (human) PC3 cells by SRB assay. (Sulforhodamine B stains cellular protein and so reports cell mass.)
The subject of another assay is IMR-32. Briefly: Cytotoxicity against Homo sapiens (human) IMR32 cells by SRB assay.
In another assay the test system is HEp-2. Briefly: Cytotoxicity against Homo sapiens (human) Hep2 cells by SRB assay.
In a further assay the test system is MCF7. Briefly: Cytotoxicity against Homo sapiens (human) MCF7 cells by SRB assay.
The test system of a further assay is COLO 205. Briefly: Cytotoxicity against Homo sapiens (human) COLO205 cells by SRB assay.
The test system of the next assay is DU-145. Briefly: Cytotoxicity against Homo sapiens (human) DU145 cells by SRB assay.

Counter-ions that a name gives are not always drawn. A value given as a limit tells only on which side of the number the result lay.

Consider `COC(=O)[C@H](Cc1cnc[nH]1)NC(=O)/C=C/C=C/c1ccc2c(c1)OCO2`, for which the IC50 in the assay with PC-3 is greater than 50 µM; in the assay on IMR-32, greater than 50 µM; with HEp-2, greater than 50 µM; with MCF7, greater than 50 µM; with COLO 205, greater than 50 µM; in the assay with DU-145, 21 µM.
With `COC(=O)C[C@H](NC(=O)/C=C/C=C/c1ccc2c(c1)OCO2)C(=O)OC`, the IC50 in the assay on PC-3 is greater than 50 µM; in the assay on IMR-32 it was greater than 50 µM; in the assay with HEp-2, greater than 50 µM; in the assay with MCF7, greater than 50 µM; in the assay with COLO 205, greater than 50 µM; in the assay with DU-145 it was 46 µM.
Take `O=C(/C=C/C=C/c1ccc2c(c1)OCO2)N1CCCCC1` [PIPERINE]: the IC50 was greater than 50 µM with PC-3; 89 µM with IMR-32; 70 µM in the assay on HEp-2; 99 µM in the assay on MCF7; 46 µM with COLO 205; greater than 50 µM in the assay with DU-145.
For `COC(=O)[C@H](CC(C)C)NC(=O)/C=C/C=C/c1ccc2c(c1)OCO2`, the IC50 in the assay on PC-3 was greater than 50 µM; in the assay with IMR-32, greater than 50 µM; with HEp-2 it was 43 µM; in the assay on MCF7, 48 µM; in the assay with COLO 205, 55 µM; in the assay with DU-145, greater than 50 µM.
In the case of `CO[C@@]12[C@H](COC(N)=O)C3=C(C(=O)C(C)=C(N)C3=O)N1C[C@@H]1N[C@@H]12` [MITOMYCIN], the IC50 came to 1.4 µM with PC-3 and 1.8 µM in the assay on DU-145.
As for `COC(=O)[C@H](C)NC(=O)/C=C/C=C/c1ccc2c(c1)OCO2`, the IC50 is greater than 50 µM with PC-3; greater than 50 µM in the assay on IMR-32; greater than 50 µM with HEp-2; greater than 50 µM in the assay with MCF7; greater than 50 µM with COLO 205; 51 µM with DU-145.
In the case of `COc1cccc2c1C(=O)c1c(O)c3c(c(O)c1C2=O)C[C@@](O)(C(=O)CO)C[C@@H]3O[C@H]1C[C@H](N)[C@H](O)[C@H](C)O1` [DOXORUBICIN HYDROCHLORIDE], the IC50 was found to be 0.02 µM in the assay with IMR-32 and 0.8 µM in the assay with MCF7.
As to `COC(=O)CNC(=O)/C=C/C=C/c1ccc2c(c1)OCO2`, the IC50 with PC-3 was 33 µM; in the assay with IMR-32 it was 50 µM; with HEp-2, greater than 50 µM; in the assay on MCF7 it was 44 µM; with COLO 205 it was greater than 50 µM; in the assay with DU-145, 49 µM.
On to `COC(=O)[C@H](CO)NC(=O)/C=C/C=C/c1ccc2c(c1)OCO2`, for which the IC50 in the assay on PC-3 was greater than 50 µM; in the assay on IMR-32 it was greater than 50 µM; with HEp-2, greater than 50 µM; with MCF7, greater than 50 µM; in the assay on COLO 205, 36 µM; with DU-145, greater than 50 µM.
As to `COC(=O)[C@@H](NC(=O)/C=C/C=C/c1ccc2c(c1)OCO2)C(C)C`, the IC50 with PC-3 was 49 µM; in the assay on IMR-32 it was greater than 50 µM; in the assay with HEp-2, greater than 50 µM; with MCF7, 51 µM; with COLO 205 it was greater than 50 µM; in the assay with DU-145, 44 µM.
For `COC(=O)[C@H](NC(=O)/C=C/C=C/c1ccc2c(c1)OCO2)C(C)C`, the IC50 in the assay on PC-3 is greater than 50 µM; with IMR-32 it was greater than 50 µM; in the assay on HEp-2 it was greater than 50 µM; in the assay with MCF7 it was greater than 50 µM; in the assay with COLO 205 it was 51 µM; in the assay on DU-145, greater than 50 µM.
In the case of `CC[C@H](C)[C@H](NC(=O)/C=C/C=C/c1ccc2c(c1)OCO2)C(=O)OC`, the IC50 with PC-3 is greater than 50 µM; in the assay with IMR-32, greater than 50 µM; in the assay with HEp-2, greater than 50 µM; with MCF7 it was 48 µM; in the assay on COLO 205, greater than 50 µM; in the assay on DU-145 it was greater than 50 µM.
Consider `O=c1[nH]cc(F)c(=O)[nH]1` [FLUOROURACIL], for which the IC50 in the assay on HEp-2 stood at 2 µM; in the assay with MCF7, 2.9 µM; with COLO 205, 2.9 µM.
